Experimental findings from PubChem BioAssay AID485337 (Sanford-Burnham Center for Chemical Genomics, 2010) are described below.

Activity calls are given as the source filed them. No rule for the calls is given here. Bounds are passed on as bounds.

The target in the experiment is SUMO-conjugating enzyme UBC9 (Homo sapiens) (UniProt P63279). Description: UBC9-dependent SUMO conjugation inhibition – biochemical, HTRF, set 2, SAR follow-up (AID 485337). Conditions: in vitro SUMOylation, HTRF read-out. In general terms: TR-FRET usually uses a lanthanide donor and a delayed reading to cut background.
SUMO-conjugating enzyme UBC9 (Homo sapiens), sequence (P63279 whole entry, looked up): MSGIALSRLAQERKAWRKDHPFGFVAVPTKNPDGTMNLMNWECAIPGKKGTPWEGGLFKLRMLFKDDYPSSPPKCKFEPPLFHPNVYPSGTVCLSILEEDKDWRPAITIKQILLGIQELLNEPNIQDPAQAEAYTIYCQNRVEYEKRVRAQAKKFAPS
For the molecule `CCCCn1c(NC(C)=O)c(C#N)c2nc3ccccc3nc21`, the IC50 is 3.39 µM.
Next, `COc1ccc2c(c1)C(NC(C)=O)C(=O)N2CCOc1ccccc1` (centres undefined): > 100 µM (inactive); `COc1cc(/C=C2\C(=O)N(c3ccccc3)N=C2C)ccc1O`: > 100 µM (inactive); `COCCNC(=O)c1c(NC(=O)c2ccccc2)n(Cc2ccccc2)c2nc3ccccc3nc12`: 13.4 µM.
Next, `CCCCn1c(NC(=O)c2ccccc2)c(C#N)c2nc3ccccc3nc21`: 16.4 µM; `CCCCn1c(NC(=O)c2ccccc2Cl)c(S(=O)(=O)c2ccccc2)c2nc3ccccc3nc21`: 37.6 µM.
Next, `N#Cc1c(NC(=O)c2ccccc2Cl)n(Cc2ccccc2)c2nc3ccccc3nc12`: 12.2 µM; `COc1ccc(CN2C(=O)C(NC(C)=O)c3ccccc32)cc1` (centres undefined): > 100 µM (inactive).
For `N#Cc1c(NC(=O)c2ccccc2Cl)n(C2CCCCC2)c2nc3ccccc3nc12`, the IC50 is 23.1 µM.
Turning to `CCCCn1c(NC(=O)c2ccco2)c(C#N)c2nc3ccccc3nc21`, the IC50 was 8.06 µM.
`Cc1cc(C)c2c(c1)C(=O)C(=O)N2CCN1CCOCC1`: the IC50 was > 100 µM (inactive).
Next, `CCCCn1c(NC(=O)c2ccccc2)c(S(=O)(=O)c2ccc(C)cc2)c2nc3ccccc3nc21`: “inactive”; `CCCCn1c(NC(=O)CC)c(S(=O)(=O)c2ccc(C)cc2)c2nc3ccccc3nc21`: “inactive”; `CCCCn1c(NC(=O)c2ccc(Cl)cc2)c(C#N)c2nc3ccccc3nc21`: 22.6 µM.
The result for `COc1ccc2c(c1)C(NC(C)=O)C(=O)N2CCc1ccccc1` (centres undefined) reads > 100 µM (inactive); that for `COc1ccc2c(c1)C(NC(C)=O)C(=O)N2CC1COc2ccccc2O1` (centres undefined), > 100 µM (inactive); that for `Nc1c(C(=O)NCc2ccco2)c2nc3ccccc3nc2n1Cc1ccccc1`, 31.1 µM.
Next, `S=c1[nH]nc(-c2cc(-c3ccccc3)n[nH]2)n1N=Cc1ccc(Br)s1`: “inactive”; `CCCCn1c(N)c(S(=O)(=O)c2ccc(C)cc2)c2nc3ccccc3nc21`: 9.28 µM.
Regarding `CCCCNC(=O)c1c(NC(=O)c2ccccc2)n(Cc2ccccc2)c2nc3ccccc3nc12`, the IC50 is 30.6 µM.
Next, `CCCCn1c(NC(=O)c2ccco2)c(S(=O)(=O)c2ccc(C)cc2)c2nc3ccccc3nc21`: 12.5 µM; `CCCN1C(=O)C(NC(C)=O)c2cc(OC)ccc21` (centres undefined): > 100 µM (inactive).
Next, `COCCn1c(NC(=O)c2ccc(Cl)cc2)c(S(=O)(=O)c2ccc(C)cc2)c2nc3ccccc3nc21`: 78.8 µM.
Next, `COc1cc(/C=C2\C(=O)N(c3ccccc3)N=C2C)ccc1OCc1ccccc1`: > 100 µM (inactive).
On to `CCCCCn1c(NC(=O)c2ccco2)c(C(=O)OCC)c2nc3ccccc3nc21`, for which the IC50 is 14.8 µM.
For `COc1ccc2c(c1)C(=O)C(=O)N2CCN1CCOCC1`, the IC50 is > 100 µM (inactive).
The result for `CC(=O)NC1C(=O)N(CCN2CCOCC2)c2ccc(C)cc21` (centres undefined) reads > 100 µM (inactive); that for `COc1cc(/C=C2\C(=O)N(c3ccccc3)N=C2C)ccc1OC(=O)c1cccs1`, > 100 µM (inactive).
In the case of `COc1ccc2c(c1)C(NC(C)=O)C(=O)N2CCN1CCOCC1` (centres undefined), the IC50 is 6.06 µM.

Broadly, the IC50 is the concentration needed to halve the response being measured.
